The results in this text go back to ChEMBL document CHEMBL4342457, “Clerodane Diterpenoids Isolated from the Leaves of Casearia graveolens” (J Nat Prod, 2020).

One assay deals with HepG2. Nature of the assay: Cytotoxicity against human HepG2 cells after 48 hrs by MTT assay. In kind it is functional, cell-based. As to conditions: HepG2, 48 h.
The subject of assay [1] is A549. Nature of the assay: Cytotoxicity against human A549 cells after 48 hrs by MTT assay. Conditions: A549, 48 h. The format is functional, cell-based. For orientation: Tetrazolium assays rely on reduction of a dye to a coloured formazan, in cell work by metabolically active cells.
Assay [2] concerns A549. Nature of the assay: Induction of cell cycle arrest in human A549 cells assessed as accumulation at G1 phase at 1.5 uM incubated for 48 hrs by propidium iodide staining based flow cytometry (reference value: 29.60%). In kind it is functional. (In general: Flow cytometry measures light scatter and fluorescence of single cells or particles in a stream.)
Assay [3] has as its system A549. Nature of the assay: Induction of apoptosis human A549 cells assessed as necrotic cells at 1 uM after 48 hrs by Annexin V-FITC/PI double staining based flow cytometric analysis (reference value: 0.3%). The format is functional.
For assay [4], the system named is A549. In words: Induction of cell cycle arrest in human A549 cells assessed as accumulation at G2 phase at 1 uM incubated for 48 hrs by propidium iodide staining based flow cytometry (reference value: 30.41%). The format is functional.
For assay [5], the system named is A549. Nature of the assay: Induction of cell cycle arrest in human A549 cells assessed as accumulation at G2 phase at 1.5 uM incubated for 48 hrs by propidium iodide staining based flow cytometry (reference value: 30.41%). The format is functional.
The test system of assay [6] is A549. In words: Induction of apoptosis human A549 cells after 48 hrs by Annexin V-FITC/PI double staining based flow cytometric analysis. The format is functional, cell-based.
Assay [7] deals with A549. In words: Induction of cell cycle arrest in human A549 cells assessed as accumulation at S phase at 1 uM incubated for 48 hrs by propidium iodide staining based flow cytometry (reference value: 39.99%). In kind it is functional.
Assay [8] concerns A549. Nature of the assay: Induction of apoptosis human A549 cells assessed as late apoptotic cells at 2 uM after 48 hrs by Annexin V-FITC/PI double staining based flow cytometric analysis (reference value: 7.4%). The format is functional.
Assay [9] has as its system A549. In words: Induction of apoptosis human A549 cells assessed as live cells at 4 uM after 48 hrs by Annexin V-FITC/PI double staining based flow cytometric analysis (reference value: 88%). The format is functional.
The test system of assay [10] is A549. In words: Induction of apoptosis human A549 cells assessed as early apoptotic cells at 4 uM after 48 hrs by Annexin V-FITC/PI double staining based flow cytometric analysis (reference value: 4.3%). In kind it is functional.
Assay [11] has as its system A549. Nature of the assay: Induction of apoptosis human A549 cells assessed as necrotic cells at 2 uM after 48 hrs by Annexin V-FITC/PI double staining based flow cytometric analysis (reference value: 0.3%). In kind it is functional.
The test system of assay [12] is A549. In words: Induction of apoptosis human A549 cells assessed as live cells at 2 uM after 48 hrs by Annexin V-FITC/PI double staining based flow cytometric analysis (reference value: 88%). The format is functional.
The subject of assay [13] is A549. Nature of the assay: Induction of apoptosis human A549 cells assessed as late apoptotic cells at 4 uM after 48 hrs by Annexin V-FITC/PI double staining based flow cytometric analysis (reference value: 7.4%). The format is functional.
The test system of assay [14] is A549. Nature of the assay: Induction of apoptosis human A549 cells assessed as necrotic cells at 4 uM after 48 hrs by Annexin V-FITC/PI double staining based flow cytometric analysis (reference value: 0.3%). The format is functional.
Assay [15] concerns A549. In words: Induction of cell cycle arrest in human A549 cells assessed as accumulation at S phase at 1.5 uM incubated for 48 hrs by propidium iodide staining based flow cytometry (reference value: 39.99%). The format is functional.
For assay [16], the system named is A549. Nature of the assay: Induction of cell cycle arrest in human A549 cells assessed as accumulation at S phase at 2 uM incubated for 48 hrs by propidium iodide staining based flow cytometry (reference value: 39.99%). In kind it is functional.
In assay [17] the test system is A549. In words: Induction of cell cycle arrest in human A549 cells assessed as accumulation at G1 phase at 2 uM incubated for 48 hrs by propidium iodide staining based flow cytometry (reference value: 29.60%). The format is functional.
Assay [18] relates to A549. Nature of the assay: Induction of apoptosis human A549 cells assessed as live cells at 1 uM after 48 hrs by Annexin V-FITC/PI double staining based flow cytometric analysis (reference value: 88%). In kind it is functional.
Assay [19] deals with A549. Nature of the assay: Induction of apoptosis human A549 cells assessed as early apoptotic cells at 2 uM after 48 hrs by Annexin V-FITC/PI double staining based flow cytometric analysis (reference value: 4.3%). In kind it is functional.
For assay [20], the system named is A549. Nature of the assay: Induction of apoptosis human A549 cells assessed as late apoptotic cells at 1 uM after 48 hrs by Annexin V-FITC/PI double staining based flow cytometric analysis (reference value: 7.4%). In kind it is functional.
For assay [21], the system named is A549. In words: Induction of cell cycle arrest in human A549 cells assessed as accumulation at G2 phase at 2 uM incubated for 48 hrs by propidium iodide staining based flow cytometry (reference value: 30.41%). The format is functional.
For assay [22], the system named is A549. In words: Induction of apoptosis human A549 cells assessed as early apoptotic cells at 1 uM after 48 hrs by Annexin V-FITC/PI double staining based flow cytometric analysis (reference value: 4.3%). The format is functional.
In assay [23] the test system is A549. In words: Induction of cell cycle arrest in human A549 cells assessed as accumulation at G1 phase at 1 uM incubated for 48 hrs by propidium iodide staining based flow cytometry (reference value: 29.60%). The format is functional.

Regarding `C=C/C(C)=C/C[C@]1(C)[C@H](C)C[C@H](O)[C@@]23C(=C[C@H](OC(=O)CC(C)C)C[C@@H]12)[C@@H](OC)O[C@H]3OC`, the IC50 in the assay with HepG2 and in the assay on A549 [1] was above 10 µM in each case.

On to `C=C/C(C)=C/C[C@]1(C)[C@H](C)C[C@H](O)[C@@]23C(=C[C@@H](OC(C)=O)C[C@@H]12)[C@@H](OC)O[C@H]3OC(C)=O`, for which the IC50 in the assay with HepG2 and with A549 [1] was above 10 µM throughout.

With `C=C/C(C)=C/C[C@]1(C)[C@H](C)C[C@H](O)[C@@]23C(=C[C@H](OC(=O)C(C)C)C[C@@H]12)[C@@H](OC)O[C@H]3OC`, the IC50 in the assay with HepG2 and with A549 [1] was above 10 µM throughout.

For `C=C/C(C)=C/C[C@]1(C)[C@H](C)C[C@H](O)[C@@]23C(=C[C@H](OC(=O)CC(C)C)C[C@@H]12)[C@@H](OC(C)=O)O[C@H]3OC(C)=O`, the Activity with A549 [2] is 70.31%; in the assay with A549 [3] it was 1.1%; in the assay with A549 [4] it was 9.01%; in the assay on A549 [5] it was 4.3%; in the assay on A549 [6], “Dose-dependent effect”; in the assay with A549 [7] it was 20.75%. The Activity in the assay on A549 [8] stood at 19.9%; with A549 [9], 5.4%; with A549 [10] it was 15%; in the assay with A549 [11], 0.8%; in the assay with A549 [12], 52.7%; with A549 [13] it was 74.5%. Moreover, the Activity is listed as 5.1% in the assay on A549 [14]; 25.39% in the assay with A549 [15]; 15.37% in the assay on A549 [16]; 79.44% in the assay on A549 [17]; 74.5% with A549 [18]; 26.7% in the assay on A549 [19]. Besides, the Activity is 18.2% with A549 [20], 5.19% in the assay on A549 [21], 6.2% in the assay with A549 [22] and 70.25% in the assay on A549 [23]. In addition, the IC50 – broadly, the midpoint of a concentration-inhibition curve – in the assay on HepG2 amounted to 4.6 µM; in the assay with A549 [1] it was 1.9 µM.

On to `C=C/C(C)=C/C[C@]1(C)[C@H](C)C[C@H](O)[C@@]23C(=C[C@H](OC(=O)C(C)C)C[C@@H]12)[C@@H](OC)O[C@H]3OC(C)=O`, for which the IC50 in the assay on HepG2 and with A549 [1] was above 10 µM throughout.

For `C=C/C(C)=C/C[C@]1(C)[C@H](C)C[C@H](O)[C@@]23C(=C[C@H](OC(=O)C(C)CC)C[C@@H]12)[C@@H](OC)O[C@H]3OC(C)=O` (some centres not stated), the IC50 with HepG2 and in the assay with A549 [1] was above 10 µM each time.

In the case of `C=C/C(C)=C/C[C@]1(C)[C@H](C)C[C@H](O)[C@@]23C(=C[C@H](OC(=O)CC(C)C)C[C@@H]12)[C@@H](OC)O[C@H]3OC(C)=O`, the IC50 in the assay with HepG2 and in the assay with A549 [1] was above 10 µM throughout.

Consider `COC(=O)C[C@](O)(CCCC(C)(C)O)C(=O)O[C@@H]1C(OC)=C[C@]23CCCN2CCc2cc4c(cc2[C@H]13)OCO4` [OMACETAXINE MEPESUCCINATE], for which the IC50 with HepG2 amounted to 0.0345 µM; in the assay with A549 [1] it was 0.0316 µM.

As to `C=C/C(C)=C/C[C@]1(C)[C@H](C)C[C@H](O)[C@@]23C(=C[C@@H](OC(=O)C(C)CC)C[C@@H]12)[C@@H](OC)O[C@H]3OC(C)=O` (some centres not stated), the IC50 in the assay with HepG2 and with A549 [1] was above 10 µM each time.

As to `C=C/C(C)=C/C[C@]1(C)[C@H](C)C[C@H](O)[C@@]23C(=C[C@H](OC(=O)C(C)C)C[C@@H]12)[C@@H](OC)O[C@@H]3OC(C)=O`, the IC50 in the assay with HepG2 and in the assay on A549 [1] was above 10 µM in each case.
